The source of these data is US9701655B2, “Functionalised benzopyran compounds and use thereof” (NOVOGEN LIMITED, priority 2014, dated 2017).

The structures appear in SMILES notation.

Holding throughout (format): cell-based
In one assay the test system is SK-Mel-28. The assay can be described thus: Proliferation of somatic cancer cells (cell-titre luminescence), SK-Mel-28. The conditions noted are these: Homo sapiens; Melanoma SK-Mel-28, 72 hrs. The procedure:
(§1) The ability of selected compounds to inhibit the proliferation of cancer cells representative of melanoma, non-small cell lung cancer, colorectal cancer, breast cancer (Estogen Receptor negative (ER−ve, TNBC−R−ve, Progesterone Receptor negative and negative for EGFR amplification), prostate cancer, liver cancer, ovarian cancer, pancreatic cancer and brain cancer was studied. A pre-determined number of cells as calculated from cell growth assays for each of the cell lines employed were seeded into their respective culture mediums (using ATCC culture parameters—http://wwvv.atcc.org) and cultured for 24 hrs at 37° C. and 5% CO2 in 96-well culture plates. Once attached, each cell line was then exposed to various concentrations of each respective analogue (30, 3, 0.3 and 0.03 μM), cultured for a further 72 hrs and exposed to cell-titre luminescent reagent (100μ/well) for a further 30 mins). Luminescence was captured using an EnVision multilabel reader and the data for each analogue concentration compared against control. Semi-log plots of Percent of Control versus concentration were prepared and IC50 determined using linear regression analysis. In Table 6, compounds Comp 1, Comp 2 and Comp 3 are comparative compounds having the following structures: […]

The test system of the next assay is A549. The assay can be described thus: Proliferation of somatic cancer cells (cell-titre luminescence), A549. The conditions noted are these: Homo sapiens, A549, 72 h, Lung (NSCLC) A549, 72 hrs. Here is the method:
as §1

The next assay has as its system MCF-7. The assay can be described thus: Proliferation of somatic cancer cells (cell-titre luminescence), MCF-7. The settings on record: Homo sapiens, MCF7; Breast MCF-7, 72 hrs. Here is the method:
as §1

The subject of another assay is DU145. Nature of the assay: Proliferation of somatic cancer cells (cell-titre luminescence), DU145. The settings on record: Homo sapiens, DU-145, 72 h, Prostate DU145, 72 hrs. Here is the method:
as §1

The next assay concerns HT-29. Nature of the assay: Proliferation of somatic cancer cells (cell-titre luminescence), HT-29. The settings on record: Homo sapiens; Colorectal HT-29, 72 hrs. The procedure: as §1
The subject of a further assay is MDA-MB-231. The assay can be described thus: Proliferation of somatic cancer cells (cell-titre luminescence), MDA-MB-231. The conditions noted are these: Homo sapiens, MDA-MB-231, 72 h, Breast MDA-MB-231, 72 hrs. The procedure: as §1
Another assay concerns HepG2. The assay can be described thus: Proliferation of somatic cancer cells (cell-titre luminescence), HepG2. The conditions noted are these: Homo sapiens, HepG2, 72 h, Liver HepG2, 72 hrs. Here is the method: as §1
The test system of another assay is PC3. Nature of the assay: Proliferation of somatic cancer cells (cell-titre luminescence), PC3. The conditions noted are these: Homo sapiens, PC-3, 72 h, Prostate PC3, 72 hrs. The procedure: as §1

As usually defined, the IC50 is the concentration needed to halve the response being measured. Read a high IC50 as weaker potency in that assay. As for `CCCc1c(O)ccc2c1OCC(c1cc(OC)c(O)c(OC)c1)C2c1ccc(O)c(F)c1` (centres unmarked) [Compound 16, 4-(3-fluoro-4-hydroxyphenyl)-3-(4-hydroxy-3,5-dimethoxyphenyl)-8-propylchroman-7-ol], the IC50 with SK-Mel-28 came to 16100 nM; in the assay with A549 it was 5450 nM; with MCF-7, 5600 nM; in the assay with DU145, 2780 nM; with HT-29, 2650 nM; in the assay on MDA-MB-231, 9800 nM. Moreover, the IC50 in the assay with HepG2 is 5290 nM; in the assay with PC3 it was 2220 nM.
As to `CCc1cc2c(cc1O)OCC(c1cc(OC)c(O)c(OC)c1)C2c1ccc(O)c(F)c1` (centres unmarked) [Compound 18, 4-(3-fluoro-4-hydroxyphenyl)-3-(4-hydroxy-3,5-dimethoxyphenyl)-6-ethylchroman-7-ol], the IC50 came out at 6430 nM in the assay on SK-Mel-28; 5540 nM in the assay with A549; 6200 nM with MCF-7; 1590 nM in the assay with DU145; 12700 nM with HT-29; 7280 nM in the assay with MDA-MB-231. In addition, the IC50 was determined as 1140 nM with HepG2 and 2120 nM in the assay on PC3.
For the compound `COc1cc(C2COc3cc(O)cc(F)c3C2c2ccc(O)c(F)c2)cc(OC)c1O` (centres unmarked) [Compound 19, 4-(3-fluoro-4-hydroxyphenyl)-3-(4-hydroxy-3,5-dimethoxyphenyl)-5-fluorochroman-7-ol], the half-maximal inhibitory concentration (IC50) with SK-Mel-28 is 2300 nM; in the assay with A549, 4840 nM; in the assay with MCF-7, 300 nM; in the assay with DU145, 210 nM; in the assay with HT-29 it was 2340 nM; in the assay on MDA-MB-231 it was 8620 nM. Further, the concentration for half-maximal inhibition (IC50) was determined as 320 nM in the assay on HepG2 and 340 nM in the assay on PC3.
Turning to `COc1cc(C2COc3cc(O)c(Cl)cc3C2c2ccc(O)c(F)c2)cc(OC)c1O` (centres unmarked) [Compound 20, 4-(3-fluoro-4-hydroxyphenyl)-3-(4-hydroxy-3,5-dimethoxyphenyl)-6-chlorochroman-7-ol], the IC50 with SK-Mel-28 worked out at 960 nM; in the assay with A549, 4210 nM; in the assay on MCF-7, 1000 nM; with DU145, 260 nM; with HT-29, 3250 nM; with MDA-MB-231, 8500 nM. Besides, the results for the IC50 with HepG2 and in the assay on PC3 were 190 nM and 850 nM, respectively.
With `COc1cc(C2COc3c(ccc(O)c3C)C2c2ccc(N)cc2)cc(OC)c1O` (centres unmarked) [Compound 21, 4-(4-aminophenyl)-3-(4-hydroxy-3,5-dimethoxyphenyl)-8-methylchroman-7-ol], the half-maximal inhibitory concentration (IC50) in the assay with SK-Mel-28 worked out at 700 nM; with A549 it was 2660 nM; in the assay on MCF-7, 600 nM; in the assay with DU145 it was 640 nM; in the assay with HT-29, 3020 nM; in the assay with MDA-MB-231, 5670 nM. Moreover, the figures for the IC50 with HepG2 and with PC3 were 350 nM and 420 nM, respectively.
Turning to `CCNc1ccc(C2c3ccc(O)c(C)c3OCC2c2cc(OC)c(O)c(OC)c2)cc1` (centres unmarked) [Compound 22, 4-(4-ethylaminophenyl)-3-(4-hydroxy-3,5-dimethoxyphenyl)-8-methylchroman-7-ol], the IC50 was 1220 nM with SK-Mel-28; 8870 nM in the assay on A549; 1600 nM in the assay on MCF-7; 450 nM with DU145; 2420 nM in the assay with HT-29; 12600 nM in the assay on MDA-MB-231. Moreover, the IC50 in the assay on HepG2 amounted to 670 nM; in the assay with PC3 it was 620 nM.
With `COc1cc(C2COc3c(ccc(O)c3C)C2c2ccc(O)c(Cl)c2)cc(OC)c1O` (centres unmarked) [Compound 24, 4-(3-chloro-4-hydroxyphenyl)-3-(4-hydroxy-3,5-dimethoxyphenyl)-8-methylchroman-7-ol], the IC50 in the assay on SK-Mel-28 is above 30000 nM; with A549, 2060 nM; with MCF-7, above 30000 nM; with DU145, 300 nM; with HT-29 it was above 30000 nM; in the assay on MDA-MB-231 it was 4400 nM. In addition, the IC50 with HepG2 is above 30000 nM; in the assay with PC3 it was 200 nM.
Take `COc1cc(C2COc3c(ccc(O)c3C)C2c2ccc3c(c2)OCO3)cc(OC)c1O` (centres unmarked) [Compound 32, 4-(3,4-methylenedioxyphenyl)-3-(4-hydroxy-3,5-dimethoxyphenyl)-8-methylchroman-7-ol]: the concentration for half-maximal inhibition (IC50) with SK-Mel-28 was 2060 nM; in the assay on A549, 11800 nM; in the assay with MCF-7, 2200 nM; in the assay on DU145, 950 nM; in the assay on HT-29, 3560 nM; with MDA-MB-231, 25300 nM. The IC50 in the assay on HepG2 is 1210 nM; in the assay on PC3 it was 1420 nM.
Regarding `CCc1cc2c(c(C)c1O)OCC(c1cc(OC)c(O)c(OC)c1)C2c1ccc(O)cc1` (centres unmarked) [Compound 33, 4-(4-hydroxyphenyl)-3-(4-hydroxy-3,5-dimethoxyphenyl)-6-ethyl-8-methylchroman-7-ol], the IC50 in the assay with SK-Mel-28 turned out to be 430 nM; in the assay on A549, 3710 nM; in the assay on MCF-7, 500 nM; in the assay on DU145 it was 390 nM; in the assay on HT-29 it was 2380 nM; in the assay on MDA-MB-231, 5290 nM. Moreover, the IC50 in the assay with HepG2 was found to be 100 nM; in the assay on PC3, 340 nM.
In the case of `CCc1c(O)ccc2c1OCC(c1cc(OC)c(O)c(OC)c1)C2c1ccc(O)cc1` (centres unmarked) [Compound 34, 4-(4-hydroxyphenyl)-3-(4-hydroxy-3,5-dimethoxyphenyl)-8-ethylchroman-7-ol], the IC50 in the assay on SK-Mel-28 was found to be 1380 nM; with A549 it was 1700 nM; in the assay with MCF-7 it was 1500 nM; in the assay on DU145 it was 630 nM; in the assay with HT-29 it was 2070 nM; with MDA-MB-231, 3770 nM. Also, the IC50 was determined as 470 nM in the assay on HepG2 and 1070 nM with PC3.
Take `COc1cc(C2COc3cc(O)c(C)cc3C2c2ccc(O)cc2)cc(OC)c1O` (centres unmarked) [Compound 35, 4-(4-hydroxyphenyl)-3-(4-hydroxy-3,5-dimethoxyphenyl)-6-methylchroman-7-ol]: the IC50 in the assay with SK-Mel-28 is 2370 nM; with A549, 4250 nM; in the assay with MCF-7, 4200 nM; in the assay on DU145 it was 770 nM; with HT-29, 5790 nM; in the assay on MDA-MB-231 it was 9890 nM. Moreover, the values for the half-inhibitory concentration (IC50) in the assay on HepG2 and in the assay with PC3 were 1060 nM and 1030 nM, respectively.
`CCc1cc2c(c(C)c1O)OCC(c1cc(C)c(O)c(C)c1)=C2c1ccc(O)c(C)c1` [Compound 38, 4-(3-methyl-4-hydroxyphenyl)-6-ethyl-8-methyl-3-(4-hydroxy-3,5-dimethylphenyl)-2H-chromen-7-ol]: the concentration for half-maximal inhibition (IC50) in the assay on SK-Mel-28 is above 30000 nM; in the assay with A549, 2600 nM; in the assay on DU145, 5510 nM; in the assay with MDA-MB-231, 23100 nM; in the assay with PC3 it was 1400 nM.
For `CCc1cc2c(c(C)c1O)OCC(c1cc(C)c(O)c(C)c1)=C2c1ccc(O)cc1F` [Compound 40, 4-(2-fluoro-4-hydroxyphenyl)-6-ethyl-8-methyl-3-(4-hydroxy-3,5-dimethylphenyl)-2H-chromen-7-ol] the same measures were above 30000 nM, 1910 nM, 3020 nM, 14100 nM and 1310 nM.
